Test results taken from paper PMC10900488, “Synthesis and Evaluation of (Bis)benzyltetrahydroisoquinoline Alkaloids as Antiparasitic Agents” (JACS Au, 2024).

Test system: L. infantum promastigotes
Test: Antipromastigote assay (L. infantum), MTT colorimetric
Type: cell-based, Leishmania (L.) infantum
Details: Leishmania infantum; ± SD; MTT, 48 h; read-out: L. infantum IC50 promastigotes
Method: (§1) Table 1 depicts the antileishmanial (L. infantum) activity evaluation performed against both the amastigote form (evaluated microscopically using an ex vivo intracellular model of mice macrophages) and the promastigote one (using an MTT colorimetric method).[32],[33] The cytotoxicity was evaluated against NCTC cells using an MTT colorimetric method and the selectivity index was determined using the ratio between the CC50 values (NCTC cells) and the IC50 values (amastigotes).[32] […] With respect to the substituents on the C ring, larger, hydrophobic groups conferred greater bioactivity (e.g., 9b–d), whereas small, hydrophilic groups such as a hydroxyl group afford modest to poor bioactivity.
(§2) Leishmania (L.) infantum (MHOM/BR/1972/LD) amastigotes were obtained from golden hamsters (Mesocricetus auratus) spleens following 60-70 days of infection via differential centrifugation. The Stauber method was used to determine the number of parasites.12 […]
Biological activity assays
Antipromastigote Assay (L. infantum)
L. infantum promastigotes (1 × 10^6 cells/well) were added to a 96-well plates. Treatment of the cells with selected compounds (serially diluted 0.14 to 200 μM) was performed in M199 medium supplemented with 0.25% hemin and 10% fetal bovine serum for 48 h at 24 °C. The MTT colorimetric assay was used to determine the activity (IC50) of the compounds. Miltefosine was used as a standard drug and untreated promastigotes were used as a negative control. The half inhibitory concentration (IC50) was determined from a sigmoidal regression of the concentration-response curves generated in GraphPadPrism7. […]

Row | Compound | IC50 [µM]
1 | COc1cc2c(cc1OC)[C@H](Cc1ccc(Oc3cc(C[C@H]4c5cc(OC)c(OC)cc5CCN4C)ccc3O)cc1)N(C)CC2 [(S,S)-13, (+)-dauricine] | 5.5 ± 0.6

Same assay, conditions: ± SD; MTT, 48 h; read-out: L. infantum IC50 promastigotes

Row | IC50 [µM] | Compound
2 | 2.4 ± 0.9 | COc1ccc(COc2ccc(C[C@@H]3c4cc(OC)c(OC)cc4CCN3C)cc2)cc1 [(R)-10c]
3 | 4.8 ± 0.2 | COc1ccc(COc2ccc(C[C@H]3c4cc(OC)c(OC)cc4CCN3C)cc2)cc1 [(S)-10c]

Test system: L. infantum amastigotes
Test: Antiamastigote assay (L. infantum), ex vivo intracellular model of mice macrophages, microscopy
Type: cell-based, Leishmania (L.) infantum
Details: Leishmania infantum, Peritoneal macrophage, 96 h, ± SD, intracellular, peritoneal macrophages, read-out: L. infantum IC50 amastigotes
Method: as §1, §2
(§3) Peritoneal macrophages were obtained via washing the peritoneal cavity of BALB/c mice with 10% foetal calf serum supplemented RPMI-1640 medium (pH 7.2). The macrophages were maintained in a humidified incubator at 37 °C and with 5% CO2.
(§4) Biological activity assays […]
Antiamastigote Assay (L. infantum)
Peritoneal macrophages (1 × 10^5/well) were added to a 16-well slide chambers (NUNC) and incubated with 5% CO2 at 37 °C. The cells were subsequently infected with L. infantum amastigotes (10:1 amastigotes/macrophage) for 24 h. Treatment of the cells with selected compounds (serially diluted 1.2 to 150 μM) was performed in a humidified incubator for 96 h at 37 °C and with 5% CO2. Untreated cells were used as a negative control and miltefosine was used as a standard drug. The treated cells were fixed on slides with methanol, stained with Giemsa and observed under a light microscope.13 The infection index was used in order to determine the half inhibitory concentration (IC50) (no. infected macrophages × no. amastigotes / total no. […]

Row | Compound | IC50 [µM]
4 | COc1cc2c(cc1OC)[C@H](Cc1ccc(Oc3cc(C[C@H]4c5cc(OC)c(OC)cc5CCN4C)ccc3O)cc1)N(C)CC2 [(S,S)-13, (+)-dauricine] | > 150

Same assay, conditions: ± SD; intracellular, peritoneal macrophages, 96 h; read-out: L. infantum IC50 amastigotes

Row | IC50 [µM] | Compound
5 | 9.3 ± 0.4 | COc1ccc(COc2ccc(C[C@@H]3c4cc(OC)c(OC)cc4CCN3C)cc2)cc1 [(R)-10c]
6 | > 150 | COc1ccc(COc2ccc(C[C@H]3c4cc(OC)c(OC)cc4CCN3C)cc2)cc1 [(S)-10c]

Test system: T. cruzi trypomastigotes
Test: Antitrypomastigote assay (T. cruzi), resazurin
Type: cell-based, Trypanosoma (T.) cruzi
Details: Trypanosoma cruzi, 24 h, ± SD, resazurin, read-out: T. cruzi IC50 trypomastigotes
Method: (§5) T. cruzi also assumes several cell morphologies during its lifecycle, which differ between the insect vector and mammalian host. In the latter environment, the parasite transitions between extracellular bloodstream trypomastigotes and intracellular amastigotes; both forms are clinically relevant, particularly during the acute stage of Chagas disease.[34] In this work, antitrypanosomal activity was tested against both the amastigote form (evaluated microscopically using an ex vivo intracellular model using mice macrophages) and the trypomastigote form (using the resazurin in vitro assay).[33],[35] […] In silico predictions of pharmacokinetic profiles were carried out using the SwissADME webtool (see the Supporting Information for details).[36] […]
(§6) […] Cultivation was performed in 2% fetal calf serum supplemented RPMI-1640 medium.
(§7) The trypomastigotes were maintained in a humidified incubator at 37 °C and with 5% CO2. […]
as §4
The half inhibitory concentration (IC50) was determined from a sigmoidal regression of the concentration-response curves generated in GraphPadPrism7. […]
Treatment of the cells with selected compounds (serially diluted 1.2 to 150 μM) was performed in a humidified incubator in RPMI 1640 medium for 24 h at 37 °C and with 5% CO2. Resazurin (0.011% in PBS) was added subsequently to verify parasite viability. Benznidazole was used as a standard drug. The optical density was determined at 570 nm using the FilterMax F5 (Molecular Devices). […]

Row | Compound | IC50 [µM]
7 | COc1cc2c(cc1OC)[C@H](Cc1ccc(Oc3cc(C[C@H]4c5cc(OC)c(OC)cc5CCN4C)ccc3O)cc1)N(C)CC2 [(S,S)-13, (+)-dauricine] | 5.1 ± 4.8

Same assay, conditions: ± SD; resazurin, 24 h; read-out: T. cruzi IC50 trypomastigotes

Row | IC50 [µM] | Compound
8 | 25.3 ± 2.1 | COc1ccc(COc2ccc(C[C@@H]3c4cc(OC)c(OC)cc4CCN3C)cc2)cc1 [(R)-10c]
9 | 20.4 ± 11.4 | COc1ccc(COc2ccc(C[C@H]3c4cc(OC)c(OC)cc4CCN3C)cc2)cc1 [(S)-10c]

Test system: T. cruzi amastigotes
Test: Antiamastigote assay (T. cruzi), ex vivo intracellular model using mice macrophages, microscopy
Type: cell-based, Trypanosoma (T.) cruzi
Details: Trypanosoma cruzi, Peritoneal macrophage, 48 h, ± SD, read-out: T. cruzi IC50 amastigotes
Method: as §5, §6, §7, §3, §4
Peritoneal macrophages (1 × 10^5 cells/well) obtained from the peritoneal cavity of BALB/C mice were added to 16-well chambers (NUNC, Thermo Fischer Scientific). The cells were infected with trypomastigotes (10:1 parasites/macrophage) for 2 h. Then treatment of the infected macrophages with selected compounds (serially diluted 1.2 to 100 μM) was performed in a humidified incubator for 48 h at 37 °C and with 5% CO2. The treated cells were fixed on slides using methanol, stained with Giemsa and observed under a light microscope (EVOS M5000, Thermo, USA) with digital image equipment. The infection index was used in order to determine the half inhibitory concentration (IC50) (no. infected macrophages × no. amastigotes / total no.

Row | Compound | IC50 [µM]
10 | COc1cc2c(cc1OC)[C@H](Cc1ccc(Oc3cc(C[C@H]4c5cc(OC)c(OC)cc5CCN4C)ccc3O)cc1)N(C)CC2 [(S,S)-13, (+)-dauricine] | 2.3 ± 1.1

Same assay, conditions: ± SD, peritoneal macrophages, 48 h, read-out: T. cruzi IC50 amastigotes

Row | IC50 [µM] | Compound
11 | > 100 | COc1ccc(COc2ccc(C[C@@H]3c4cc(OC)c(OC)cc4CCN3C)cc2)cc1 [(R)-10c]
12 | > 100 | COc1ccc(COc2ccc(C[C@H]3c4cc(OC)c(OC)cc4CCN3C)cc2)cc1 [(S)-10c]

Test system: not listed separately
Test: Mammalian toxicity, MTT colorimetric
Type: cell-based, murine
Details: mouse
Method: as §1, with “bioactivity. […]” for “bioactivity.”
(§8) Murine conjunctive fibroblasts NCTC clone 929 (ATCC) were maintained in 10% foetal calf serum supplemented RPMI-1640 medium (pH 7.2) at 37 °C in a humidified incubator with 5% CO2. […]
as §4
(§9) NCTC cells (6 × 10^4/well) were added to a 96-well plate. Treatments of the cells with selected compounds (serially diluted 1.5 to 200 μM) was performed in a humidified incubator for 96 h at 37 °C and with 5% CO2.
(§10) The MTT colorimetric method was used to determine the 50% cytotoxic concentration (CC50) and the selectivity index (CC50 against NCTC cells/IC50 against amastigotes).15 […]
(§11) […] At 6 h and 24 h post-treatment, a 1 mL aliquot was taken for imaging. The cell cycle experiment was preformed twice independently.
(§12) Generation of mNG::RAD51 tagged cell line
(§13) The single-stranded DNA-binding protein RAD51, associated with DNA Repair, LmxM.28.0550 was tagged with endogenous fluorescent protein mNeonGreen (mNG) at the N-terminus. […]
(§14) Primers for constructs and sgRNA were designed using LeishGEdit (http://www.leishGEdit.net).
(§15) PCR was at 94 °C for 5 min, followed by 35 cycles at 94 °C (15 sec), 65 °C (15 sec), 72 °C (2 min) then finally 72 °C (1 min).
(§16) PCR was at 94 °C for 30 sec, followed by 30 cycles at 94 °C (30 sec), 60 °C (30 sec), 72 °C (30 sec) then finally 72 °C (2 min). […] Combined PCR products were precipitated for 20 min with 10 μL 3M sodium acetate and 300 μL EtOH, pelleted at 14000 min-1 30 min, washed once with 70% EtOH, re-pelleted and resuspended in […]
(§17) Promastigotes (1 × 10^7 cells) were combined with PCR products and transfected using the Amaxa Nucleofector II.17 Electroporation was performed using 2 mm cuvettes on the X-100 program, followed by immediate suspension in pre-warmed M199 medium. Successful transfectants were selected with 20 μg mL-1 Puromycin 15 h after transfection, taking 4 days to reach stable growth in culture. mNG::RAD51 nuclear foci studies mNG::RAD51 promastigotes (5 × 10^6 cells mL-1) in 7 mL of M199 medium were treated with 7 μL o f compound (S)-9a or (S)-9b dissolved in DMSO giving a final concentration of 50 μM. Phleomycin was used as a positive control at a final concentration of 25 μg mL-1. At T = 0, 15, 30, 60 min, and 2, 6, 24 h post-treatment a 0.8 mL aliquot was taken for imaging.

Row | Compound | CC50 at 96 h [µM]
13 | COc1cc2c(cc1OC)[C@H](Cc1ccc(Oc3cc(C[C@H]4c5cc(OC)c(OC)cc5CCN4C)ccc3O)cc1)N(C)CC2 [(S,S)-13, (+)-dauricine] | 15.9 ± 0.8

Test system: NCTC cells
Test: Mammalian toxicity, MTT colorimetric
Type: cell-based, murine
Details: not given
Method: as §1, with “bioactivity. […]” for “bioactivity.”
as §8, §4, §9, §10, §11, §12, §13, §14, §15, §16, §17

Row | Compound | CC50 [µM]
14 | COc1ccc(COc2ccc(C[C@@H]3c4cc(OC)c(OC)cc4CCN3C)cc2)cc1 [(R)-10c] | 28.1 ± 5.5
15 | COc1ccc(COc2ccc(C[C@H]3c4cc(OC)c(OC)cc4CCN3C)cc2)cc1 [(S)-10c] | 5.8 ± 0.5

Test system: mNG::RAD51 promastigotes
Test: mNG::RAD51 nuclear foci studies
Type: cell-based, Leishmania (L.) mexicana
Details: 25 μg mL-1, from 2 h posttreatment
From the text: DSBs often lead to cytotoxicity, which could be an explanation for the observed compound activity.[44]−[46]Leishmania employ the RAD51 DNA recombinase protein as part of its DNA repair machinery to fix naturally occurring nuclear DSBs via homologous recombination.[47]−[50] Using a CRISPR/Cas9 gene editing strategy,[51] we generated a genetically modified cell line with mNeonGreen tagged RAD51. This would allow observation of fluorescent RAD51 protein recruitment to foci in the nucleus corresponding to DSB accumulation, as has been shown in T. brucei.[52],[53] Phleomycin was used as a positive control to induce DSBs,[54] which led to the expected observation of accumulation of RAD51 as green dots in the nucleus in 80% of cells from as early as 2 h posttreatment (Figure 2D). […] We can therefore conclude that the BI compounds tested are unlikely to act via DSBs (albeit this methodology is sensitive only to DSBs in nuclear DNA), and another mechanism of cell cycle disruption is responsible for the breakdown in the healthy cell cycle.
as §9, §10
[…] […] Statistical significance was derived from a two-tailed T-test.
The Graph Pad Prism 5 software was used to perform sigmoid dose-response curves for the determination of […]
as §11, §12, §13
Primers for constructs and sgRNA were designed using LeishGEdit (http://www.leishGEdit.net). […]

Row | Compound | cells with accumulation of RAD51 in the nucleus [%]
16 | Phleomycin [reference compound] | 80

Test system: L. donovani promastigotes
Test: not given
Parameters: method as in PMID 26625837, PMID 12203262, PMID 3253497, PMID 25629555, PMID 3075676
Details: reported antiparasitic activity; cited from earlier work

Row | Compound | IC50 [µM]
17 | COc1ccc2cc1Oc1ccc(cc1)C[C@H]1c3cc(OC)c(OC)c(c3CCN1C)Oc1c(O)c(OC)cc3c1[C@H](C2)NCC3 [compound 2, northalrugosidine] | 0.28

Test system: T. cruzi epimastigotes
Test: not given
Parameters: method as in PMID 26625837, PMID 12203262, PMID 3253497, PMID 25629555, PMID 3075676
Details: reported antiparasitic activity; cited from earlier work

Row | Compound | IC50 [µM]
18 | COc1ccc2cc1Oc1ccc(cc1)C[C@H]1c3c(cc(OC)c(O)c3Oc3cc4c(cc3OC)CCN[C@@H]4C2)CCN1C [compound 3, daphnandrine] | 43
